Data reported in patent US20110294726A1, “ANTIBIOTIC THERAPY TO REDUCE THE LIKELIHOOD OF DEVELOPING POST-INFECTIOUS IRRITABLE BOWEL SYNDROME” (CEDARS-SINAI MEDICAL CENTER, priority 2009, published 2011).

Columns and labels:
Shigella = conditions: humans, recent study (16); cited from earlier work
C. jejuni 81-176 [1] = assay: Tracking the acute colonization with C. jejuni in stool of gavaged rats; format: in vivo, Male Sprague-Dawley rats
Method: Male Sprague-Dawley rats (n=108) (200g) were quarantined for 10 days. Subsequently, fresh stool was collected by stroking the anus. Stool was cultured for C. jejuni on Campylobacter agar (BD Diagnostics, Franklin Lakes, N.J.). This was conducted to confirm the absence of infection or colonization of animals with C. jejuni prior to starting the study. […] In the first group (n=54), the rats were gavaged with 1 mL of a 5% solution of bicarbonate. This was given to acutely reduce gastric acidity. Subsequently, the rats were gavaged with a 1 mL suspension of 10^8 cfu/mL C. jejuni 81-176 in Campylobacter broth (C+/R− group). In the second group (n=54), the rats were gavaged with a 1 mL solution of rifaximin (200 mg) (C+/R+ group). The following day, the C+/R+ group received 3 sequential gavages. The first was another 1 mL dose of rifaximin. One hour later, they were gavaged with a 1 mL solution of 5% bicarbonate followed by a third gavage consisting of a 1 mL suspension of 10^8 cfu/mL C. jejuni 81-176 in Campylobacter broth. The following day, the C+/R+ group received a third and final gavage of 200 mg of rifaximin. After completion of the gavage, fresh stool was collected daily from all rats (both groups) and cultured for the presence of C. jejuni on Campylobacter agar. The number of days to first detectable C. jejuni in stool was recorded. Once colonization was noted, daily stool was cultured until 2 consecutive days with no detectable C. jejuni was observed. This was recorded as the time to C. jejuni clearance. In the post-infectious phase, the time to initial colonization, time for clearance and total duration of shedding were determined and compared between the C+/R− and C+/R+ groups. This was compared by Wilcoxon rank-sum test.

C. jejuni 81-176 [2] = assay: Determination of a post-infectious phenotype (stool form, % stool weight) 3 months after C. jejuni clearance; format: in vivo, Male Sprague-Dawley rats
Method: Male Sprague-Dawley rats (n=108) (200g) were quarantined for 10 days. Subsequently, fresh stool was collected by stroking the anus. Stool was cultured for C. jejuni on Campylobacter agar (BD Diagnostics, Franklin Lakes, N.J.). This was conducted to confirm the absence of infection or colonization of animals with C. jejuni prior to starting the study. […] In the first group (n=54), the rats were gavaged with 1 mL of a 5% solution of bicarbonate. This was given to acutely reduce gastric acidity. Subsequently, the rats were gavaged with a 1 mL suspension of 10^8 cfu/mL C. jejuni 81-176 in Campylobacter broth (C+/R− group). In the second group (n=54), the rats were gavaged with a 1 mL solution of rifaximin (200 mg) (C+/R+ group). The following day, the C+/R+ group received 3 sequential gavages. The first was another 1 mL dose of rifaximin. One hour later, they were gavaged with a 1 mL solution of 5% bicarbonate followed by a third gavage consisting of a 1 mL suspension of 10^8 cfu/mL C. jejuni 81-176 in Campylobacter broth. The following day, the C+/R+ group received a third and final gavage of 200 mg of rifaximin. After C. jejuni clearance was determined, the rats were housed for an additional 3 months (90 days). At 90 days, fresh stool was collected for 3 consecutive days. The stool was graded for consistency. To do this, a modified Bristol-like stool score was used. In this score, stool was graded as normal (1), soft and poorly formed (2), or watery (3). The stool was then weighed and air dried for 5 days followed by oven drying at 160° C. for 1 hour. The stool was reweighed and a % stool wet weight was determined. After completion of the study, the rats were euthanized by CO2 asphyxiation, weighed, and a laparotomy was performed. During the laparotomy, predefined segments of duodenum, jejunum, ileum, left colon, and rectum were resected, as previously described (12). Subsequently, the contents of each segment were cultured for the presence of C. jejuni. At the end of 3 months, the stool form for 3 days was averaged and then the two groups were compared. In another analysis, the number of days with normal stool in 3 days was determined and compared between groups. Finally, the variance in stool form over 3 days was also determined and compared between groups. The comparison was done by Wilcoxon rank-sum test.

In the case of `CO[C@H]1/C=C/O[C@@]2(C)Oc3c(C)c(O)c4c(O)c(c5c(nc6cc(C)ccn65)c4c3C2=O)NC(=O)/C(C)=C\C=C\[C@H](C)[C@H](O)[C@@H](C)[C@@H](O)[C@@H](C)[C@H](OC(C)=O)[C@@H]1C` [rifaximin], the “Prevention of illness by prophylaxis of a Shigella infection (in words)” value (Shigella) is listed as “able to prevent illness”, the Longest colonization (C. jejuni 81-176 [1]; C+/R+ group) is listed as 21 days and the “Rats with at least one day of detectable C. jejuni in stool (percent)” value (C. jejuni 81-176 [1]; C+/R+ group of 54 rats, P=0.016 vs C+/R−) is listed as 98%. For the same compound, the “Rats with at least one day of detectable C. jejuni in stool (number)” value (C. jejuni 81-176 [1]; of 54 rats in the C+/R+ group, P=0.016 vs C+/R−) was 53 rats, the “Detection of C. jejuni in stool in the acute phase (in words)” value (C. jejuni 81-176 [1]; rifaximin prophylaxis, rats) was “did not prevent C. jejuni from being detected in stool” and the “Time to first detectable C. jejuni” value (C. jejuni 81-176 [1]; stool culture, number of days after gavage, rifaximin 200 mg gavage on 3 days around inoculation, P<0.0001 vs C+/R−) was 1.3 ± 0.4. For the same compound, the “Average % of stool dry weight” value (C. jejuni 81-176 [2]; 3 months after clearance, 3 day average, P NS) was 61.1 +/− 3.8%, the “Daily variability of Dry Weight” value (C. jejuni 81-176 [2]; 3 months after clearance, over 3 days, P<0.01) was 4.1 +/− 2.3 and the “Number of bowel movements normal in form out of 3 days (FIG. 2, in words)” value (C. jejuni 81-176 [2]; C+/R+ versus C+/R−, 3 months after clearance) was “closer to having perfectly normal bowel function”. The “Daily Variability of Stool Consistency” value (C. jejuni 81-176 [2]; over 3 days, 3 months after clearance, P<0.01) was “.24 +/− 0.5”, the “Long term effects of C. jejuni on the bowel (in words)” value (C. jejuni 81-176 [2]; rifaximin prophylaxis, stool form and % wet weight) was “reduced the long term effects of C. jejuni on the bowel” and the “Average Stool Consistency (Based on Bristol Stool Scale)” value (C. jejuni 81-176 [2]; score 1 normal, 2 soft and poorly formed, 3 watery, 3 day average, 3 months after clearance, P<0.00001) was 1.1 +/− 0.3.
